{"source": "patent EP0974351A2", "about": "“Medicament for preventing and treating gastrointestinal damage” (JOUVEINAL, priority 1998, dated 2000)", "key": {"[1]": {"system": "handling responses following withdrawal of chronic ethanol treatment", "assay": "Handling-induced behavior after ethanol withdrawal in mice", "format": "in vivo, Male albino mice of the outbred TO strain", "method": "(§1) Male albino mice of the outbred TO strain (Bantin and Kingman, UK) were used in all studies. The weight ranged from 25 to 35 g, with no more than a 5 g range in any single experiment. The mice were housed, eight per cage, at 21°C ± 1°C, with 55 ± 10% relative humidity, and a 12-hour light/dark cycle with the light phase between 09:00 to 21:00. All mice received ad libitum access to tap water and standard laboratory chow (RM-1, Special Diet Services, UK) until their use in experiments or until their diet was replaced with a liquid diet.\n(§2) Ethanol was administered in a liquid diet schedule. All mice received control diet for an initial 2-day period. Ethanol treated mice then received a diet containing 3.5% (v/v) ethanol/water for 2 days, followed by a diet containing 7% ethanol for a further 5 days. The average intake was 22 to 30 g/kg/day. Control groups were pair-fed a control diet, balanced isocalorifically to match the ethanol containing diet. There were no differences in the weights of the ethanol-treated and control mice at the end of the treatment periods. When mice were withdrawn from the ethanol (between 07:00 AM and 09:00 AM), they were provided with tap water until their use in experiments.\n(§3) Gabapentin was dissolved in saline, the solution being made freshly each testing day. Intraperitoneal (i.p.) injections of either gabapentin, 10 mL/kg, or saline, were given immediately on withdrawal from the ethanol treatment, in the studies on the handling responses and 2 hours prior to measurement of audiogenic seizures. In the experiments using the elevated plus maze, gabapentin or saline was injected i.p. at 8 hours after the removal of the ethanol diet, and the mice placed on the plus maze 60 minutes after the injections. In the studies on motor co-ordination (ataxia) and on locomotor activity, gabapentin or saline was injected to ethanol-naive chow fed mice immediately before testing. Measurements were then made for 60 minutes for the ataxia study, and for 30 minutes in the case of the locomotor activity.\nFollowing withdrawal from the ethanol treatment at 09:00 AM, ratings of handling-induced behavior were assessed by the same experimenter, on the same mice, every hour for a period of 12 hours after withdrawal from ethanol.\nEach mouse was lifted gently by the tail and held for 3 seconds, 30 cm under an \"Anglepoise lamp\" with a 60-watt bulb. The animal was gently rotated and its ensuing behavior rated on a scale of 1 to 5 according to the criteria in Table 2. Groups of 15 mice were used in each of the treatment groups, and the data were calculated as medians with interquartile ranges. The data were also expressed as the area under the curve at 4 and 12 hours from the withdrawal of the ethanol treatment.\n(§4) The results of the handling response ratings were compared by nonparametric two-way analysis of variance, designed for repeat measures on the same animal. The results of the area under the curve calculations were compared by the Mann-Whitney U-test. The convulsion incidence was analyzed by Fisher's exact probability test. The measurements from the elevated plus maze were subjected to one-way analysis of variance, followed by a Bonuferroni multiple comparison test, comparing all groups to the control group which received saline injections, and also both ethanol treated groups which received gabapentin to the ethanol treated group which received saline. The ataxia measurements were analyzed by the Mann-Whitney U-test and the locomotor activity by Student's t-test."}, "[2]": {"system": "PGE2", "assay": "PGE2 content of gastric mucosa biopsies (ELISA) in indomethacin-treated rats", "format": "in vivo, Male CD-Sprague-Dawley rats", "settings": "for effect on the inhibition of PGE2 caused by indomethacin: any dose tested (1-200 mg/kg orally)", "method": "(§5) Male CD-Sprague-Dawley rats (132-202 g) were received and housed in a room with controlled temperature, humidity, and 12-hour light/dark cycle. After a period of acclimatization of 4 to 5 days, and after a 24-hour food fasting period, animals were used for the study described below.\n(§6) Gabapentin or pregabalin (CI-1008) were dissolved in water and administered orally at the following doses: 1, 10, 100, and 200 mg/kg in a volume of 1 mL. Control animals were dosed with an equal volume of vehicle (1 mL of water). Sixty minutes later, all the animals received 1 mL of a solution of 80 mg/kg indomethacin dissolved in 5% aqueous NaHCO3. Control animals received 1 mL of 5% aqueous NaHCO3 orally. Experimental groups were as follows:\n(§7) Animals were sacrificed by decapitation 4 hours post-indomethacin administration. The stomach was removed and opened along the greater curvature and its image digitized and stored on an optical disk using a 486-based PC computer equipped with CUE3 system imaging analysis software (Olympus Corp., Marietta, Georgia, USA). Two 6-mm biopsies were taken from a constant region of the gastric mucosa located in each side of the glandular portion of the stomach and their PGE2 content was measured using a commercially available ELISA kit (Assay Designs Inc., Ann Arbor, Michigan, USA). The presence of gastric damage was determined using the retrieved electronic image, and the extent of damage was measured using the CUE3 imaging software. Data are expressed as a percent of gastric area damaged and the PGE2 content (pg/mL)."}, "[3]": {"system": "Audiogenic Convulsions", "assay": "Audiogenic seizures after ethanol withdrawal in mice", "format": "in vivo, Male albino mice of the outbred TO strain", "settings": "for Percentage of Group Showing Clonic Convulsions: Ethanol Diet, 8 hours from ethanol withdrawal, ethanol/saline 80", "method": "as §1, §2, §3\nAt 8 and 12 hours from ethanol withdrawal, the susceptibility to sound-induced convulsions was measured in separate groups of ten mice. Mice were tested individually in a sound-proof perspex box 30 × 30 × 30 cm containing an electric door-bell. The bell was rung for 2 minutes or until the first signs of convulsions. The number of mice which responded by wild-running and clonic convulsions was counted. The mice were humanely killed as soon as a full convulsion was seen.\nas §4"}, "[4]": {"system": "gastric damage induced by indomethacin", "assay": "Indomethacin (80 mg/kg) gastric damage in rats, percent of gastric area damaged by image analysis", "format": "in vivo, Male CD-Sprague-Dawley rats", "settings": "indomethacin + vehicle 5.56 ± 0.48", "method": "The following test in rats was carried out to further establish the ability of gabapentin and Pregabalin to reduce the gastrointestinal damage caused by NSAIDS.\nas §5, §6, §7"}, "[5]": {"settings": "1 mg/kg orally before indomethacin 80 mg/kg, control 9525.27 ± 156.00, indomethacin + vehicle 1908.03 ± 72.31"}, "[6]": {"settings": "10 mg/kg orally before indomethacin 80 mg/kg, indomethacin + vehicle 1908.03 ± 72.31"}, "[7]": {"settings": "100 mg/kg orally before indomethacin 80 mg/kg, indomethacin + vehicle 1908.03 ± 72.31"}, "[8]": {"settings": "200 mg/kg orally before indomethacin 80 mg/kg, indomethacin + vehicle 1908.03 ± 72.31"}, "[9]": {"settings": "1 mg/kg orally 60 min before indomethacin 80 mg/kg, 4 hours post-indomethacin, average ± standard error"}, "[10]": {"settings": "10 mg/kg orally 60 min before indomethacin 80 mg/kg"}, "[11]": {"settings": "100 mg/kg orally 60 min before indomethacin 80 mg/kg"}, "[12]": {"settings": "200 mg/kg orally 60 min before indomethacin 80 mg/kg"}}, "data": [{"molecule": "NCC1(CC(=O)O)CCCCC1", "note": "[Gabapentin, 1-(aminomethyl)-cyclohexane acetic acid]", "values": [{"measurement": "area under the handling curve for the first 4 hours", "setting": "[1]; gabapentin 20 mg/kg i.p., p <0.05", "value": "significant effects"}, {"measurement": "area under the handling curve for the first 4 hours", "setting": "[1]; gabapentin 50 mg/kg i.p., p <0.05", "value": "significant effects"}, {"measurement": "duration of marked reduction in handling scores", "setting": "[1]; gabapentin 100 mg/kg i.p.", "value": "around 4 hours"}, {"measurement": "ratings of behavior in response to gentle handling over the 12-hour testing period", "setting": "[1]; gabapentin 100 mg/kg i.p. on withdrawal from ethanol, p <0.001", "value": "significantly reduced"}, {"measurement": "area under the handling curve for the first 4 hours", "setting": "[1]; gabapentin 100 mg/kg i.p., p <0.01", "value": "significant effects"}, {"measurement": "ratings of behavior in response to gentle handling over the 12-hour period of measurement", "setting": "[1]; lower doses of gabapentin (below 100 mg/kg) i.p. on withdrawal from ethanol", "value": "not significant"}, {"measurement": "PGE2 Synthesis", "setting": "[2]; [5]", "value": "1783.66 ± 73.47", "unit": "pg/mL"}, {"measurement": "PGE2 Synthesis", "setting": "[2]; [6]", "value": "3065.78 ± 137.19", "unit": "pg/mL"}, {"measurement": "PGE2 Synthesis", "setting": "[2]; [7]", "value": "2997.90 ± 226.80", "unit": "pg/mL"}, {"measurement": "PGE2 Synthesis", "setting": "[2]; [8]", "value": "2615.74 ± 165.36", "unit": "pg/mL"}, {"measurement": "effect on the inhibition of PGE2 caused by indomethacin", "setting": "[2]", "value": "Neither gabapentin nor CI-1008, at any dose tested, were able to significantly modify this effect"}, {"measurement": "Percentage of Group Showing Clonic Convulsions", "setting": "[3]; Gabapentin 5 mg/kg i.p. 2 hours before test", "value": 92, "unit": "%"}, {"measurement": "Percentage of Group Showing Clonic Convulsions", "setting": "[3]; Gabapentin 20 mg/kg i.p.", "value": 70, "unit": "%"}, {"measurement": "Percentage of Group Showing Clonic Convulsions", "setting": "[3]; Gabapentin 50 mg/kg i.p.", "value": 40, "unit": "%"}, {"measurement": "Percentage of Group Showing Clonic Convulsions", "setting": "[3]; Gabapentin 100 mg/kg i.p.", "value": "30 p <0.01 c.f Ethanol/Saline group %"}, {"measurement": "convulsion incidence after the audiogenic stimulus", "setting": "[3]; any of the doses tested, 12 hours from the end of the ethanol treatment (data not shown)", "value": "No effect"}, {"measurement": "% Area Damaged", "setting": "[4]; [9]", "value": "2.99 ± 0.46", "unit": "%"}, {"measurement": "% Area Damaged", "setting": "[4]; [10]", "value": "3.96 ± 0.35", "unit": "%"}, {"measurement": "% Area Damaged", "setting": "[4]; [11]", "value": "1.87 ± 0.1", "unit": "%"}, {"measurement": "% Area Damaged", "setting": "[4]; [12]", "value": "1.43 ± 0.40", "unit": "%"}]}, {"molecule": "CC(C)C[C@H](CN)CC(=O)O", "note": "[CI-1008, (S)-3-(aminomethyl)-5-methylhexanoic acid]", "values": [{"measurement": "PGE2 Synthesis", "setting": "[2]; [5]", "value": "1209.95 ± 105.50", "unit": "pg/mL"}, {"measurement": "PGE2 Synthesis", "setting": "[2]; [6]", "value": "2666.16 ± 307.45", "unit": "pg/mL"}, {"measurement": "PGE2 Synthesis", "setting": "[2]; [7]", "value": "3994.45 ± 318.95", "unit": "pg/mL"}, {"measurement": "PGE2 Synthesis", "setting": "[2]; [8]", "value": "3288.92 ± 407.43", "unit": "pg/mL"}, {"measurement": "effect on the inhibition of PGE2 caused by indomethacin", "setting": "[2]", "value": "Neither gabapentin nor CI-1008, at any dose tested, were able to significantly modify this effect"}, {"measurement": "% Area Damaged", "setting": "[4]; [9]", "value": "8.07 ± 2.19", "unit": "%"}, {"measurement": "% Area Damaged", "setting": "[4]; [10]", "value": "4.07 ± 0.42", "unit": "%"}, {"measurement": "% Area Damaged", "setting": "[4]; [11]", "value": "1.99± 0.25", "unit": "%"}, {"measurement": "% Area Damaged", "setting": "[4]; [12]", "value": "0.34 ± 0.06", "unit": "%"}]}]}
